Biological target: HPK1 (Homo sapiens (Human), UniProt Q92918)
Assay: HPK1 biochemical enzyme assay (microfluidic mobility shift assay)
Details: 1.5 nM HPK1, ATP 1 mM final, 30 min preincubation, 60 min at RT, Caliper EZ Reader; read-out: HPK1 1000UMATP caliper IC50
How it was run: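 Mobility shift readout of HPK1 activity after a 60 min RT reaction with 1 mM ATP, 1 μM substrate and 5 mM MgCl2. Enzyme/substrate mix was first exposed to compounds for 30 min, using ten-point curves topping at 3 μM final.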

Sequence of HPK1 (Q92918 whole entry): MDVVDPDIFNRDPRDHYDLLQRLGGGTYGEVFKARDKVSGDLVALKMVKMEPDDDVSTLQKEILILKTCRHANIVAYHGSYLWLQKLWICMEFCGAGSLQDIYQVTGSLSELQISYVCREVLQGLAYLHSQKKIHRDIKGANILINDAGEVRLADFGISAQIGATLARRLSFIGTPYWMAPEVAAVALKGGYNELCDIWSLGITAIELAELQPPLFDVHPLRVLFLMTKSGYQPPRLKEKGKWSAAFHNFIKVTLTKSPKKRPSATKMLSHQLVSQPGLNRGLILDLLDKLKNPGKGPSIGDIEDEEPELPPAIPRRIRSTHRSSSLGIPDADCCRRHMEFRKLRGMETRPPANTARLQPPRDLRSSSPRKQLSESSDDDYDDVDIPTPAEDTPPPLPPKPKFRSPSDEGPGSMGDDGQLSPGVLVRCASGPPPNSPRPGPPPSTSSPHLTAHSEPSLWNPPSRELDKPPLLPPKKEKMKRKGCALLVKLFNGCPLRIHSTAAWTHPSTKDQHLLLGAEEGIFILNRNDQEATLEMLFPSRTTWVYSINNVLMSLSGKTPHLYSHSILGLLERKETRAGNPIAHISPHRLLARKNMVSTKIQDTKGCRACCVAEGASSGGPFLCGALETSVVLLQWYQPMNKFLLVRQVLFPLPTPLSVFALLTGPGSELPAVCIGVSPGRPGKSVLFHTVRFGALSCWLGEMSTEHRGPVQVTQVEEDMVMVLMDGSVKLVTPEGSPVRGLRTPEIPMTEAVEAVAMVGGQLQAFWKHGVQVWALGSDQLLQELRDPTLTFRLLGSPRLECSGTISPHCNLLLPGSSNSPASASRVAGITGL

IC50, < 100 nM:
O=C1NCc2c(-c3cnc4cc(F)ccn34)ccc(Nc3ccc([C@@H]4CCOC4)c(CN4CC[C@H](O)C4)n3)c21 [I-779, 4-(7-fluoroimidazo[1,2-a]pyridin-3-yl)-7-((6-(((S)-3-hydroxypyrrolidin-1-yl)methyl)-5-((S)-tetrahydrofuran-3-yl)pyridin-2-yl)amino)isoindolin-1-one]
CO[C@@H]1CCN(Cc2nc(Nc3ccc(-c4cnc5cc(F)ccn45)c4c3C(=O)NC4)ccc2[C@H]2CCOC2)C1 [I-780, 4-(7-fluoroimidazo [1,2-a]pyridin-3-yl)-7((6-(((R)-3-methoxypyrrol-idin-1-yl)methyl)-5-((R)-tetraliydrofiiran-3-yl)pyridin-2-yl)amino)isoin-dolin-1-one]
CO[C@@H]1CCN(Cc2nc(Nc3ccc(-c4cnc5cc(F)ccn45)c4c3C(=O)NC4)ccc2[C@@H]2CCOC2)C1 [I-781, 4-(7-fluoroimidazo [1,2-a]pyridin-3-yl)-7-((6-(((R)-3-methoxypyrrol-idin-1-yl)methyl)-5-((S)-tetrahydrofuran-3-yl)pyridin-2-yl)amino)isoin-dolin-1-one]
COCC1(O)CCN(c2ccc(Nc3ccc(-c4cnc5cc(F)ccn45)c4c3C(=O)NC4)nc2CN(C)C)CC1 [I-782, 7-((6-((dimethylamino)-methyl)-5-(4-hydroxy-4-(methoxymeth-yl)piperidin-1-yl)pyridin-2-yl)amino)-4-(7-fluoroimidazo [1,2-a]pyridin-3-yl)isoindolin-1-one]
O=C1NCc2c(-c3cnc4cc(F)ccn34)ccc(Nc3ccc([C@H]4CCOC4)c(CN4CC[C@@H](O)C4)n3)c21 [I-783, 4-(7-f1uoroimidazo [1,2-a]pyridin-3-yl)-7-((6-(((R)-3-hydroxypyrrol-idin-1-yl)methyl)-5-((R)-tetrahydrofuran-3-yl)pyridin-2-yl)amino)isoin-dolin-1-one]
O=C1NCc2c(-c3cnc4cc(F)ccn34)ccc(Nc3ccc([C@@H]4CCOC4)c(CN4CC[C@@H](O)C4)n3)c21 [I-784, 4-(7-fluoroimidazo [1,2-a]pyridin-3-yl)-7-((6-(((R)-3-hydroxypyrroli-din-1-yl)methyl)-5-((S)-tetrahydrofuran-3-yl)pyridin-2-yl)amino)isoin-dolin-1-one]
CCN(CC)Cc1nc(Nc2ccc(-c3cnc4cc(F)ccn34)c3c2C(=O)NC3)ccc1N1CCOCC1 [I-785, 7-((6-((diethylamino)-methyl)-5-morpholinopyr-idin-2-yl)amino)-4-(7-fluoroimidazo [1,2-a]pyridin-3-yl)isoindolin-1-one]
CN(C)Cc1nc(Nc2ccc(-c3cnc4cc(F)ccn34)c3c2C(=O)NC3)ccc1C1CCC1 [I-788, 7-((5-cyclobutyl-6-((dimethylamino)-methyl)pyri-din-2-yl)amino)-4-(7-fluoroimidazo [1,2-a]pyridin-3-yl)isoindolin-1-one]
CO[C@H]1CCN(Cc2nc(Nc3ccc(-c4cnc5cc(F)ccn45)c4c3C(=O)NC4)ccc2[C@@H]2CCOC2)C1 [I-790, 4-(7-fluoroimidazo [1,2-a]pyridin-3-yl)-7-((6-(((S)-3-methoxypyrrol-idin-1-yl)methyl)-5-((S)-tetrahydiofuran-3-yl)pyridin-2-yl)amino)isoin-dolin-1-one]
CCNC(=O)c1ccc(Nc2ccc(-c3cnc4cc(F)ccn34)c3c2C(=O)NC3)nc1CN(C)C [I-791, 2-((dimethylamino)-methyl)-N-ethyl-6-((7-(7-fluoroimidazo [1,2-a]pyridin-3-yl)-3-oxoisoindolin-4-yl)amino)nico-tinamide]
CN(C)Cc1nc(Nc2ccc(-c3cnc4cc(F)ccn34)c3c2C(=O)NC3)ccc1N1CCN(C)C(=O)C1 [I-795, 7-((6-((dimethylamino)-methyl)-5-(4-methyl-3-oxopiperazin-1-yl)pyridin-2-yl)amino)-4-(7-fluoroimidazo [1,2-a]pyridin-3-yl)isoindolin-1-one]
CN(C)Cc1nc(Nc2ccc(-c3cnc4cc(F)ccn34)c3c2C(=O)NC3)ccc1S(C)(=O)=O [I-796, 7-((6-((dimethylamino)-methyl)-5-(methylsulfon-yl)pyridin-2-yl)amino)-4-(7-fluoroimidazo [1,2-a]pyridin-3-yl)isoindolin-1-one]
COC[C@@H]1CN(c2ccc(Nc3cnc(-c4ccnc5c4ccn5C)c4c3C(=O)NC4)nc2CN(C)C)CCO1 [I-797, (S)-7-((6-((dimethylamino)-methyl)-5-(2-(methoxymeth-yl)morpholino)-pyridin-2-yl)amino)-4-(1-methyl-1H-pyrrolo[2,3-b]pyridin-4-yl)-2,3-dihydro-1H-pyrrolo[3,4-c)pyridin-1-one]
COC[C@H]1CN(c2ccc(Nc3cnc(-c4ccnc5c4ccn5C)c4c3C(=O)NC4)nc2CN(C)C)CCO1 [I-798, (R)-7-((6-((dimethylamino)-methyl)-5-(2-(methoxymeth-yl)morpholino)pyridin-2-yl)amino)-4-(1-methyl-1H-pyrrolo[2,3-b]pyridin-4-yl)-2,3-dihydro-1H-pyrrolo[3,4-c]pyridin-1-one]
CN(C)Cc1nc(Nc2ccc(-c3cnc4cc(F)ccn34)c3c2C(=O)NC3)cnc1[C@H]1CCOC1 [I-800, (R)-7-((6-((dimethylamino)-methyl)-5-(tetrahydrofuran-3-yl)pyrazin-2-yl)amino)-4-(7-fluoroimidazo [1,2-a]pyridin-3-yl)isoindolin-1-one]
CN(C)Cc1nc(Nc2ccc(-c3cnc4cc(F)ccn34)c3c2C(=O)NC3)ccc1[C@]1(O)CCOC1 [I-803, (R)-7-((6-((dimethylamino)-methyl)-5-(3-hydroxytetra-hydrofuran-3-yl)pyridin-2-yl)amino)-4-(7-fluoroimidazo [1,2-a]pyridin-3-yl)isoindolin-1-one]
CN(C)Cc1nc(Nc2ccc(-c3cnc4cc(F)ccn34)c3c2C(=O)NC3)ccc1[C@@]1(O)CCOC1 [I-804, (S)-7-((6-((dimethylamino)-methyl)-5-(3-hydroxytetra-hydrofuran-3-yl)pyridin-2-yl)amino)-4-(7-fluoroimidazo [1,2-a]pyridin-3-yl)isoindolin-1-one]
CN(C)Cc1nc(Nc2cnc(-c3ccnc4c3ccn4C)c3c2C(=O)NC3)ccc1O[C@H]1CCOC1 [I-806, (S)-7-((6-((dimetlnlamino)-methyl)-5-((tetrahydrofur-an-3-yl)oxy)pyridin-2-yl)amino)-4-(1-methyl-1H-pyrrolo[2,3-b]pyridin-4-yl)-2,3-dihydro-1H-pyrrolo[3,4-c]pyridin-1-one]
Cn1ccc2c(-c3ncc(Nc4ccc([C@@H]5CCOC5)c(CN5CC[C@@H](O)C5)n4)c4c3CNC4=O)ccnc21 [I-809, 7-((6-(((R)-3-hydroxypyrroli-din-1-yl)methyl)-5-((S)-THF-3-yl)pyridin-2-yl)amino)-4-(1-methyl-1H-pyrrolo[2,3-b]pyridin-4-yl)-2,3-dihydro-1H-pyrrolo[3,4-c]pyridin-1-one]
Cn1ccc2c(-c3ncc(Nc4ccc([C@H]5CCOC5)c(CN5CC[C@@H](O)C5)n4)c4c3CNC4=O)ccnc21 [I-810, 7-((6-(((R)-3-hydroxypyrroli-din-1-yl)methyl)-5-((R)-THF-3-yl)pyridin-2-yl)amino)-4-(1-methyl-1H-pyrrolo[2,3-b]pyridin-4-yl)-2,3-dihydro-1H-pyrrolo[3,4-c]pyridin-1-one]
Cn1ccc2c(-c3ncc(Nc4ccc([C@@H]5CCOC5)c(CN5CC[C@H](O)C5)n4)c4c3CNC4=O)ccnc21 [I-811, 7-((6-(((S)-3-hydroxypyrroli-din-1-yl)methyl)-5-((S)-THF-3-yl)pyridin-2-yl)amino)-4-(1-methyl-1H-pyrrolo[2,3-b]pyridin-4-yl)-2,3-dihydro-1H-pyrrolo[3,4-c]pyridin-1-one]
Cn1ccc2c(-c3ncc(Nc4ccc([C@H]5CCOC5)c(CN5CC[C@H](O)C5)n4)c4c3CNC4=O)ccnc21 [I-812, 7-((6-(((S)-3-hydroxypyrroli-din-1-yl)methyl)-5-((R)-THF-3-yl)pyridin-2-yl)amino)-4-(1-methyl-1H-pyrrolo[2,3-b]pyridin-4-yl)-2,3-dihydro-1H-pyrrolo[3,4-c]pyridin-1-one]
CN1CC(Oc2nc(Nc3ccc(-c4cnc5cc(F)ccn45)c4c3C(=O)NC4)ccc2[C@H]2CCOC2)C1 [I-815]
C[C@H](c1nc(Nc2ccc(-c3cnc4cc(F)ccn34)c3c2C(=O)NC3)ccc1[C@H]1CCOC1)N(C)C [I-817, 7-((6-((R)-1-(dimethylami-no)ethyl)-5-((R)-THF-3-yl)pyridin-2-yl)amino)-4-(7-fluoroimidazo [1,2-a]pyridin-3-yl)isoindolin-1-one]
COC1(c2ccc(Nc3ccc(-c4cnc5cc(F)ccn45)c4c3C(=O)NC4)nc2CN(C)C)CC1 [I-823, 7-((6-((dimethylamino)methyl)-5-(1-methoxycyclopropyl)pyridin-2-yl)amino)-4-(7-fluoroimidazo[1,2-a]pyridin-3-yl)isoindolin-1-one]
CN(C)Cc1nc(Nc2ccc(-c3cnc4cc(F)ccn34)c3c2C(=O)NC3)ccc1C1(C#N)CCOCC1 [I-824, 4-(2-((dimethylamino)methyl)-6-((7-(7-fluoroimidazo [1,2-a]pyridin-3-yl)-3-oxoisoindolin-4-yl)amino)pyri-din-3-yl)tetrahydro-2H-pyran-4-carbonitrilc]
O=C1NCc2c(-c3cnc4cc(F)ccn34)ccc(Nc3ccc([C@H]4CCOC4)c(CN4CCC[C@@H]4CO)n3)c21 [I-825, 4-(7-fluoroimidazo [1,2-a]pyridin-3-yl)-7-((6-(((R)-2-(hydroxymeth-yl)pyrrolidin-1-yl]methyl)-5-((R)-THF-3-yl)pyridin-2-yl)amino)isoin-dolin-1-one]

From patent publication US11021481B2, “Substituted isoindolin-1-ones and 2,3-dihydro-1h-pyrrolo[3,4-c]pyridin-1-ones as HPK1 antagonists” (Nimbus Saturn, Inc., priority 2019, dated 2021)
